# Measured values taken from patent publication US11034726B2, “Gene expression inhibitors” (PIVARIS BIOSCIENCE GMBH, priority 2017, dated 2021).
# Ends that are not written are not given here. Peptide text beside a SMILES is read from it.
# Legend:
# [1] = system: plasmid-encoded luciferase in HEK293 cells; assay: Transient transfection of luciferase expression plasmid (CMV promoter) with peptide, luciferase in cell lysates; settings: for luciferase % of DMSO con-: peptide 2 μM, 24 hrs post-transfection, HEK293, relative to DMSO control; for inhibition of luciferase production (in words): peptide transfected with CMV-luciferase plasmid, HEK293, 24 hrs; for IC50: read-out: IC50 inhibition of plasmid-encoded luciferase levels, transfected together with the plasmid-DNA
# [2] = system: luciferase under control of the truncated interleukin-8 (IL-8) promoter in HEK293 cells; assay: Transfection of luciferase under truncated IL-8 promoter, TNF-α stimulation; format: cell-based, human; settings: 24 hrs post-transfection, TNF-α 6 hrs after transfection
# Description: (§1) HEK293 cells were transiently transfected with a construct containing the luciferase coding region under control of the truncated interleukin-8 (IL-8) promoter and peptide I24 and stimulated with tumor necrosis factor (TNF)-α 6 hrs after transfection and analysed 24 hrs post-transfection for expression of luciferase in cell lysates and released IL-8 in the supernatants by ELISA.
# [3] = system: endogenous interleukin-8 in HEK293 cells; assay: Endogenous IL-8 release by ELISA in transfected, TNF-α-stimulated cells; format: cell-based, human; settings: 24 hrs post-transfection
# Description: as §1
# Escherichia coli [4] = assay: Plasmid copy numbers and β-lactamase mRNA in transformed E. coli by real-time PCR; format: cell-based; settings: normalized to E. coli single-copy gene
# Description: Competent Escherichia coli cells were transformed with a plasmid containing an ampicillin resistance gene and peptide I24. After indicated time-points, total plasmid numbers and β-lactamase mRNA levels were determined by real-time PCR normalized to an E. coli single-copy gene.
# [5] = system: baculovirus encoding luciferase under control of the CMV promoter; assay: Baculovirus-mediated luciferase gene expression in HEK293 cells; format: cell-based; settings: for baculovirus-mediated luciferase expression (in words): HEK293 pretreated for 10 minutes
# Description: A baculovirus was generated with the luciferase coding region under control of the CMV promoter integrated in its viral genome. The baculovirus was applied to HEK293 cells pretreated for 10 minutes with DMSO or increasing concentrations of peptide I24, TAT and the fusion peptide TAT-I24. Luciferase expression is reduced in cells treated with cell-permeable fusion peptide TAT-I24 in a dose-dependent manner (FIG. 7a). Baculovirus-infected cells incubated with DMSO, TAT-I24 or TAT were stimulated with TNF-α and total RNA isolated from cells. After treatment of the RNA with DNAse I, reverse transcription was performed. Luciferase and IL-8 mRNA were analysed by real-time PCR.
# [6] = system: plasmid-encoded luciferase in CV-1 cells; assay: Transfection of CMV-luciferase plasmid in CV-1 cells; format: cell-based, African Green Monkey; settings: CV-1, different concentrations
# Description: (§2) The cell lines African Green Monkey kidney cells CV-1 and COS-7, as well as the human breast cancer cell line MCF-7 and the human colon cancer cell lines HT-29 were transiently transfected with a plasmid containing luciferase under control of a CMV promoter and different concentrations of peptide […].
# [7] = system: plasmid-encoded luciferase in MCF-7 cells; assay: Transfection of CMV-luciferase plasmid in MCF-7 cells; format: cell-based, human; settings: MCF-7, different concentrations
# Description: as §2
# Escherichia coli [8] = assay: Colony formation of E. coli transformed with antibiotic resistance plasmid and peptide; format: cell-based
# Description: Competent Escherichia coli cells were transformed with a plasmid containing an ampicillin resistance gene or a kanamycin resistance gene and either DMSO as vehicle control or I24. On the next day, number of colonies was reduced in the presence of peptide I24 compared to the vehicle control (FIG. 11).
# [9] = system: plasmid-encoded green fluorescence protein (GFP) in HEK293 cells; assay: Transfection of GFP expression plasmid, Western blot and GFP-positive cells; format: cell-based, human; settings: 2 μM
# [10] = system: plasmid-encoded luciferase in COS-7 cells; assay: Transfection of CMV-luciferase plasmid in COS-7 cells, luciferase protein and mRNA; format: cell-based, African green monkey
# Description: COS-7 African green monkey kidney cells were transfected with an expression plasmid driving luciferase under control of the CMV promoter and luciferase determined in cell lysates. For analysis of expression of luciferase mRNA, total RNA was isolated, treated with DNAse I and subjected to reverse transcription using random hexamers. Real-time PCR was performed with hydrolysis probes detecting luciferase and normalized to 18S rRNA transcript levels.
# The cell lines African Green Monkey kidney cells CV-1 and COS-7, as well as the human breast cancer cell line MCF-7 and the human colon cancer cell lines HT-29 were transiently transfected with a plasmid containing luciferase under control of a CMV promoter and different concentrations of peptide I24.
# [11] = system: plasmid-encoded luciferase and neomycin resistance gene mRNA in HEK293 cells; assay: Real-time PCR of luciferase (CMV promoter) and neomycin resistance gene (early SV40 promoter) mRNA from one plasmid; format: cell-based, human; settings: increasing concentration, 24 hrs, normalized against GAPDH
# Description: HEK293 cells were transiently transfected in the presence of increasing concentrations of peptide I24 with an expression plasmid containing luciferase under control of the CMV promoter and the neomycin resistance gene under control of the early SV40 promoter. After 24 hrs, total RNA was isolated from the cells, digested with DNAse I to remove plasmid-DNA and subjected to reverse transcription. Quantitative real-time PCR analysis of luciferase and neomycin mRNA was performed using hydrolysis probes and normalized against GAPDH transcripts.
# [12] = system: plasmid-encoded luciferase in HT-29 cells; assay: Transfection of CMV-luciferase plasmid in HT-29 cells; format: cell-based, human; settings: HT-29, different concentrations
# Description: as §2
# vaccinia virus = format: cell-based; settings: for rpo22 mRNA levels (in words): normalized to GAPDH
# herpes simplex virus = assay: Herpes simplex virus plaque-formation assay; format: cell-based
# Description: Cells were infected with herpes simplex virus and replication of virus determined by a plaque-formation assay (see examples above). Replication of herpes simplex virus was inhibited by TAT-I24 in a dose-dependent manner.
# [13] = system: adenovirus encoding luciferase and GFP; assay: Adenovirus gene expression and replication in HEK293 cells; format: cell-based
# Description: HEK293 cells were treated with increasing concentrations of the peptides I24, TAT-I24 or TAT alone and incubated with adenovirus encoding luciferase and green fluorescence protein (GFP) under control of the CMV promoter. […] HEK293 cells were treated with vehicle control, the peptide I24, TAT-I24 or TAT alone (20 μM) and adenovirus particles encoding luciferase and GFP. After 72 hrs, RNA was isolated and luciferase and GFP as well as adenovirus hexon transcript levels analysed by real-time PCR and normalized to GAPDH. […] DNA was isolated from supernatants and adenovirus hexon DNA quantified using real-time PCR (FIG. 8c).
# [14] = system: lentivirus containing luciferase under control of the CMV promoter; assay: Lentivirus luciferase gene expression in HEK293 cells; format: cell-based; settings: 20 μM, 48 hrs
# Description: HEK293 cells were incubated with peptide I24, TAT-tagged peptide I24 (TAT-I24), or TAT followed by addition of lentivirus containing luciferase under control of the CMV promoter for 48 hrs.
# [15] = TNF-α stimulated, real-time PCR
molecule,measurement,setting,value
SLAFYASFS [I24 M4],luciferase % of DMSO con-,[1],100.5%
WSEQCFTCWW [reference compound],activity in the cellular transfection assay (in words),[1]; 2 μM,no inhibitory effect
same,luciferase % of DMSO con-,[1],106.2%
FYCFC [I24 M18],luciferase % of DMSO con-,[1],107.8%
CLAFYACFC (cysteine pairing not given here) [I24],TNF-α-induced luciferase expression (IL-8 promoter),[2],reduced TNF-α-induced luciferase expression
same,release of IL-8 (ELISA),[3],not affected
same,inhibition of reporter gene expression,[1]; 2 μM,approximately 90%
same,inhibition of reporter gene expression,[1]; 20 μM,90%
same,luciferase % of DMSO con-,[1],12.2%
same,inhibition of luciferase production (in words),[1],dose-dependent inhibition of luciferase production
same,plasmid copy numbers,Escherichia coli [4]; 4 and 6 hrs after transformation,downregulated
same,β-lactamase mRNA levels,Escherichia coli [4],downregulated
same,baculovirus-mediated luciferase expression (in words),[5],only weakly active
same,inhibition of the reporter gene luciferase,[6],Inhibition of the reporter gene luciferase was observed
same,inhibition of the reporter gene luciferase,[7],Inhibition of the reporter gene luciferase was observed
same,"colony formation, peptide applied after transformation",Escherichia coli [8]; applied after transformation is completed,inactive
same,number of colonies,Escherichia coli [8]; peptide applied simultaneously with plasmid (ampicillin or kanamycin resistance gene),reduced
same,GFP production by Western blot,[9],reduced
same,number of GFP-positive cells,[9],reduced
same,inhibition of the reporter gene luciferase,"[10]; COS-7, different concentrations",Inhibition of the reporter gene luciferase was observed
same,luciferase protein levels,"[10]; COS-7, different incubation times",downregulated
same,luciferase mRNA levels,"[10]; COS-7, normalized to 18S rRNA, different incubation times",downregulated
same,reduction of luciferase transcripts (CMV promoter),[11],87%
same,reduction of neomycin mRNA levels (early SV40 promoter),[11],about 50%
same,inhibition of the reporter gene luciferase,[12],Inhibition of the reporter gene luciferase was observed
CLAFYRCFC [I24 M28],luciferase % of DMSO con-,[1],93.4%
CLAFYACLWC [I24 M22],luciferase % of DMSO con-,[1],6.8%
CLAFYACFAC [I24 M5],luciferase % of DMSO con-,[1],10.6%
SAFYACFAC [I24 M7],luciferase % of DMSO con-,[1],75.9%
CLAFYACFWC [I24 M20],luciferase % of DMSO con-,[1],5.6%
CLAYFCFC [I24 M16],luciferase % of DMSO con-,[1],68.7%
"GRKKRRQRRRPPQ [TAT, peptide representing the TAT tag alone, reference compound]",inhibition of luciferase production (in words),[1],inactive
same,rpo22 mRNA levels (in words),vaccinia virus; 24 hrs after infection,no inhibition
CLLYFCFC [I24 M17],luciferase % of DMSO con-,[1],16.7%
CLVFYACFC [I24 M12],luciferase % of DMSO con-,[1],11.8%
CC(C)C[C@H](NC(=O)[C@H](CS)NC(=O)[C@H](CCC(N)=O)NC(=O)[C@@H]1CCCN1C(=O)[C@@H]1CCCN1C(=O)[C@H](CCCNC(=N)N)NC(=O)[C@H](CCCNC(=N)N)NC(=O)[C@H](CCCNC(=N)N)NC(=O)[C@H](CCC(N)=O)NC(=O)[C@H](CCCNC(=N)N)NC(=O)[C@H](CCCNC(=N)N)NC(=O)[C@H](CCCCN)NC(=O)[C@H](CCCCN)NC(=O)[C@H](CCCNC(=N)N)NC(=O)CN)C(=O)N[C@@H](C)C(=O)N[C@@H](Cc1ccccc1)C(=O)N[C@@H](Cc1ccc(O)cc1)C(=O)N[C@@H](C)C(=O)N[C@@H](CS)C(=O)N[C@@H](Cc1ccccc1)C(=O)N[C@@H](CS)C(=O)O [TAT-I24] (H-GRKKRRQRRRPPQCLAFYACFC-OH; N-terminus and C-terminus assumed),luciferase % of DMSO con-,[1],1.8%
same,inhibition of luciferase production (in words),[1],more potent inhibition of luciferase expression
same,IC50,[1],0.06 µM
same,baculovirus-mediated luciferase expression (in words),[5],reduced
same,IL-8 mRNA levels (cellular gene),[5]; [15],remained unaffected
same,luciferase mRNA (baculovirus-encoded),[5]; [15],down-regulated
same,replication of herpes simplex virus,herpes simplex virus,inhibited
same,"luciferase, GFP and adenovirus hexon transcript levels","[13]; 20 μM, 72 hrs, normalized to GAPDH",inhibition of all three adenovirus-encoded genes
same,cell detachment of virus-infected HEK293 cells,"[13]; 96 hrs after infection, crystal violet staining",inhibition of cell detachment
same,IC50,"[13]; HEK293, read-out: IC50 luciferase protein levels, adenovirus",6 µM
same,adenovirus particles released to supernatants (hexon DNA),[13]; real-time PCR of supernatant DNA,inhibits formation and release of adenovirus particles to supernatants
same,"inhibition of virus replication, vaccinia virus",vaccinia virus; 20 μM,> 90%
same,reduction of amount of viral DNA in the supernatants,"vaccinia virus; 20 μM, 24 hrs after infection",> 90%
same,reduction of number of plaque forming units (PFU) in the supernatants,"vaccinia virus; 20 μM, plaque assay using BSC-40 cells",> 90%
same,rpo22 mRNA levels (in words),vaccinia virus; 24 hrs after infection,dose-dependently inhibited
same,"reduction in luciferase levels, lentivirus",[14],75%
CLAFRACFC [I24 M27],luciferase % of DMSO con-,[1],110.9%
CLAFYACFCGGGCLAFYACFC [I24 dimer],luciferase % of DMSO con-,[1],3.8%
same,IC50,[1],0.09 µM
SVFYACFAC [I24_M8],activity in the cellular transfection assay (in words),[1]; 2 μM,no inhibitory effect
same,luciferase % of DMSO con-,[1],103.7%
CLAFYCFC [I24 M13],luciferase % of DMSO con-,[1],64.9%
CLAFYCFAC [I24 M14],luciferase % of DMSO con-,[1],63.2%
CLAFYARFC [I24 M29],luciferase % of DMSO con-,[1],56.3%
SLAFYACFAC [I24 M6],luciferase % of DMSO con-,[1],41.9%
FYCFAC [I24_M19],luciferase % of DMSO con-,[1],118.6%
CAAFYACFC [I24 M11],luciferase % of DMSO con-,[1],32.2%
FYACFC [I24 M9],luciferase % of DMSO con-,[1],103.6%
FYACFAC [I24 M10],luciferase % of DMSO con-,[1],104.2%
CLARYACFC [I24 M26],luciferase % of DMSO con-,[1],128.6%
CLAFYACRC [I24 M30],luciferase % of DMSO con-,[1],116.5%
CLAFYAC [I24 M2],luciferase % of DMSO con-,[1],110.1%
SVFYACFC [I24 M31],luciferase % of DMSO con-,[1],135.5%
